The results in this text go back to patent publication US5976523A, “Method for healing compromised tissues using pyrimidine derivatives” (Mitsui Pharmaceuticals, Inc., priority 1995, dated 1999).

Structures can show the parent of a compound that is named as a salt.

Assay [1] deals with TMK1 cells. Kind of assay: TMK1 cell migration in Boyden's chamber. Format: cell-based. Conditions: 4 hours. As to the method: TMK1 cells, low-differentiating epithelial cells, were treated with trypsin. […] The culture medium in the lower well was then subjected to fixing and staining, and cells which had migrated therein were counted. Experiments were conducted concurrently in three chambers.
Each value will be presented as a mean ±S.D. and with respect to each compound, numbers of cells will be presented in the order of a) control, b) each pyrimidine compound (whose concentration will be specifically indicated), c) 10 ng/ml of EGF, and d) a mixed solution of each pyrimidine compound + EGF.

In assay [2] the test system is PDGF-A mRNAs. Nature of the assay: Polysome distribution (translation) of PDGF-A mRNAs in rat SMCs. It counts as cell-based. The protocol: SMCs were prepared following the method proposed by Ross and Klebanoff in "J. Cell. […] A rat thoracic aorta was excised. After the tunica externa was peeled off, the tunica media and the tunica intima were minced into 2-3 mm^2. The minced sections were placed standstill in a 25-cm^2 flask which contained Waymouth's MB 752/1 medium containing 10% FBS and 80 ng/ml of gentamycin (product of Schering-Plough Corp.), followed by incubation at 37° C. for 2 to 3 weeks in the presence of 5% carbon dioxide gas (primary culture). The same volume of a trypsin-EDTA solution was added to the flask. After the sections were treated at 37° C. for 5 minutes to peel off cells, the cells were diluted with 10% FBS-Waymouth's MB 752/1 medium and then subcultured (second generation). Subculture was successively conducted likewise whenever the SMC became confluent. In the following experiments, the cells from the 5th generation to the 12th generation were employed. After reach in confluence of cells, the cultured SMCs were cultured for 2 days in a serum-free medium to avoid influence of serum. The SMCs were then added with thrombin (1.0 U/ml) or serotonin (5 μM), followed by incubation at 37° C. for 6 hours under which bring about induction of PDGF-A mRNAs at the maximum. To prevent dissociation of ribosomes and mRNAs, cycloheximide (100 μg/ml) was added 5 minutes before cells were collected. […] Biol. Chem.", 267, 508 ff, 1992 with slight modifications. The cells, which had been collected by the treatment with trypsin, were washed with PBS containing cycloheximide (100 μg/ml). A cell precipitate was then added with 500 μl of a high-salt lysis buffer (20 mM Tris-HCl pH 7.5, 250 mM NaCl, 5 mM MgCl2, 0.1% Noni det P-40, 0.2% DOC) for homogenization. The homogenate was centrifuged under 12,000×g at 4° C. for 10 minutes. The resulting supernatant was added with 67 μl of a heparine mix (7.4 mg/ml heparine, 1.1M NaCl, 15 mM DTT and RNasin). 200 μl of the extract were layered on 5 ml of 0.5-1.25M linear sucrose gradient (which contained 20 mM Tris-HCl pH 7.4, 10 mM NaCl, 3 mM MgCl2), followed by centrifugation under 45,000 rpm for 90 minutes in a "Hitachi […]". While monitoring the absorbance at 260 nm, ten (10) fractions were obtained. […] Subsequent to incubation at 37° C. for 1 hour, each fraction was extracted once with 1/2 volume of phenol, twice with 1/2 volume aliquots of chloroform, and once with the equal volume of chloroform, whereby proteins were removed. The water layer was added with glycogen (20 μg/ml) as a coprecipitant and then with 0.03M of sodium acetate, and RNAs were caused to precipitate with 2 volumes of ethanol. After RNAs were incubated at 65° C. for 5 minutes in a solution containing 60% of formamide, 5.9% of formaldehyde and the equal volume of MOPS buffer (10 mM MOPS pH 7.0, 4 mM NaOAc, 0.5 mM EDTA), electrophoresis was conducted across 1.2% agarose gels containing the equal volume of MOPS buffer so that RNAs were. isolated. After the gel was washed with 20 volumes of SSC, RNAs were blotted overnight to a Gene Screen Plus membrane by the capillary method. Fixing of the RNAs was conducted by exposing them for 1 minute at a distance of 10 cm from […]. Using a "QuickHyb Hybridization Solution" (product of Strategene Ltd.), hybridization was conducted following the instruction manual attached to the solution. Results of autoradiography were quantitated with reference to the NIH Image. […]

Assay [3] relates to PDGF-A mRNAs. Nature of the assay: Northern blot analysis of PDGF-A mRNA expression in cultured rat SMCs. The following applies: vs serum-free medium. Format: cell-based. As to the method: SMCs were prepared following the method proposed by Ross and Klebanoff in "J. Cell. Biol.", 50, 159 ff, 1971 with partial modifications. A rat thoracic aorta was excised. After the tunica externa was peeled off, the tunica media and the tunica intima were minced into 2-3 mm^2. The minced sections were placed standstill in a 25-cm^2 flask which contained Waymouth's MB 752/1 medium containing 10% FBS and 80 ng/ml of gentamycin (product of Schering-Plough Corp.), followed by incubation at 37° C. for 2 to 3 weeks in the presence of 5% carbon dioxide gas (primary culture). The same volume of a trypsin-EDTA solution was added to the flask. After the sections were treated at 37° C. for 5 minutes to peel off cells, the cells were diluted with 10% FBS-Waymouth's MB 752/1 medium and then subcultured (second generation). Subculture was successively conducted likewise whenever the SMC became confluent. In the following experiments, the cells from the 5th generation to the 12th generation were employed.
After reach in confluence of cells, the cultured SMCs were cultured for 2 days in a serum-free medium to avoid influence of serum. The SMCs were then added with thrombin (1.0 U/ml) or serotonin (5 μM), followed by incubation at 37° C. for 6 hours under which bring about induction of PDGF-A mRNAs at the maximum. To prevent dissociation of ribosomes and mRNAs, cycloheximide (100 μg/ml) was added 5 minutes before cells were collected.
Preparation of a polysome fraction and extraction of RNAs were conducted following the method proposed by Kasper, et al. in "J. Biol. Chem.", 267, 508 ff, 1992 with slight modifications. The cells, which had been collected by the treatment with trypsin, were washed with PBS containing cycloheximide (100 μg/ml). A cell precipitate was then added with 500 μl of a high-salt lysis buffer (20 mM Tris-HCl pH 7.5, 250 mM NaCl, 5 mM MgCl2, 0.1% Noni det P-40, 0.2% DOC) for homogenization. The homogenate was centrifuged under 12,000×g at 4° C. for 10 minutes. The resulting supernatant was added with 67 μl of a heparine mix (7.4 mg/ml heparine, 1.1M NaCl, 15 mM DTT and RNasin). 200 μl of the extract were layered on 5 ml of 0.5-1.25M linear sucrose gradient (which contained 20 mM Tris-HCl pH 7.4, 10 mM NaCl, 3 mM MgCl2), followed by centrifugation under 45,000 rpm for 90 minutes in a "Hitachi RP55ST". While monitoring the absorbance at 260 nm, ten (10) fractions were obtained. To prepare samples for the extraction of RNAs, the fractions were individually added with SDS and proteinase K to give final concentrations of 1% and 0.2 mg/ml, respectively. Subsequent to incubation at 37° C. for 1 hour, each fraction was extracted once with 1/2 volume of phenol, twice with 1/2 volume aliquots of chloroform, and once with the equal volume of chloroform, whereby proteins were removed. The water layer was added with glycogen (20 μg/ml) as a coprecipitant and then with 0.03M of sodium acetate, and RNAs were caused to precipitate with 2 volumes of ethanol.
After RNAs were incubated at 65° C. for 5 minutes in a solution containing 60% of formamide, 5.9% of formaldehyde and the equal volume of MOPS buffer (10 mM MOPS pH 7.0, 4 mM NaOAc, 0.5 mM EDTA), electrophoresis was conducted across 1.2% agarose gels containing the equal volume of MOPS buffer so that RNAs were. isolated. After the gel was washed with 20 volumes of SSC, RNAs were blotted overnight to a Gene Screen Plus membrane by the capillary method. Fixing of the RNAs was conducted by exposing them for 1 minute at a distance of 10 cm from a 15-W sterilamp. Using a "QuickHyb Hybridization Solution" (product of Strategene Ltd.), hybridization was conducted following the instruction manual attached to the solution. Results of autoradiography were quantitated with reference to the NIH Image. […]

Assay [4] deals with TMK1 cells. Kind of assay: Morphological change of TMK1 cells. Format: cell-based. The following applies: EGF alone 10 ng/ml, day 1.
Assay [5] deals with primary cultured gastric mucosal cells. Nature of the assay: Wound repair model with primary cultured gastric mucosal cells. It counts as cell-based, rabbit. Conditions: for area of the wounded region (mean±S.D.): EGF alone 10 ng/ml. The protocol:
Primary cultured gastric mucosal cells were prepared by mechanically peeling and mincing the gastric mucosa of a rabbit having a body weight of 2 kg and then digesting the minced gastric mucosa with 0.07% collagenase. The primary cultured gastric mucosal cells were cultured at a cell concentration of 3.3×10^5 cells/ml in F-12 culture medium containing 10% fetal calf serum added therein. For this cultivation, a culture dish (60 mm in diameter) coated with collagen type I was used. […] Using an anti-BrdU antibody, the cells in the S phase were stained to identify proliferated cells.
Their effects on the process of restoration were measured under the above-described parameters. […] In each of the control group and the medicament-added groups, the area of the wounded region was measured at the 0th hour, 12th hour, 24th hour, 36th hour and 48th hour. The measurement results will be given in this order.
The control group and the groups added with the medicament at the respective concentrations were each subjected to the experiment with n=5. The results will each be presented as a (mean±S. D.) mm2. A test of significance was conducted relative to the control group. * stands for p<0.05, ** for p<0.01, *** for p<0.001. A further test of significance was conducted relative to a group added with 10 ng/ml of EGF. + stands for p<0.05, and ++ for <0.01.

With `CN1C(=O)Cc2cnc(N3CCCCC3)nc21`, the “numbers of cells counted (migrated), mean ±S.D.” value is listed as 20.9±3.9 in the assay on TMK1 cells [1] (compound 0.1 mM + EGF 10 ng/ml) and 2.9±1.0 in the assay with TMK1 cells [1] (compound alone, 0.1 mM).
On the same counts, the results for `CCC1CCN(c2ncc3c(n2)N(C)C(=O)C3)CC1` [2-(4-ethylpiperidino)-7-methyl-6-oxo-5,6-dihydro(7H)pyrro[2,3-d]pyrimidinemaleate] are 144±3.1 and 28.6±18.4.
On the same counts, the results for `CN1C(=O)C(C)(C)c2cnc(N3CCCCC3)nc21` [2-piperidino-5,5,7-trimethyl-6-oxo-5,6-dihydro(7H)pyrro[3,4-d]pyrimidine maleate] are 147.2±13.2 and 33±12.6.
On to `NCCc1c[nH]c2ccc(O)cc12` [serotonin, reference compound], for which the “translation state of the three kinds of PDGF-A mRNAs” value in the assay with PDGF-A mRNAs [2] (serotonin alone) is reported as “all in translated forms”. Also, in the assay with PDGF-A mRNAs [3] (Rattus norvegicus, 6 h, sole addition of serotonin (5 μM), read-out: expression amount of 1.7 kb PDGF-A mRNAs compared with control), the fold induction at 5 µM amounted to 1.7.
As to EGF: epidermal growth factor, the morphological changes entry in the assay with TMK1 cells [4] is listed as “significant morphological changes were observed as early as day 1, presenting scattering”. Moreover, the “area of the wounded region (mean±S.D.)” value is 2.06±0.06 mm2 in assay [5] (0th hour); 0.91±0.03 mm2 in assay [5] (12th hour); 0.46±0.15 mm2 in assay [5] (24th hour); 0.08±0.04 mm2 in assay [5] (36th hour); 0 mm2 in assay [5] (48th hour). Also, the “effect on migration, proliferation and restoration of the cells” value in assay [5] (EGF alone 1-10 ng/ml) was “promoted migration and proliferation of the cells in a concentration-dependent manner and accelerated the speed of restoration”.
In the case of thrombin, the “translation state of 1.7 kb, 2.3 kb and 2.9 kb PDGF-A mRNAs” value in the assay with PDGF-A mRNAs [2] (thrombin alone) was “both those in a translated form and those in the non-translated form”. Moreover, in the assay with PDGF-A mRNAs [3] (sole addition of thrombin (1.0 U/ml)), the “expression amount of 1.7 kb PDGF-A mRNAs compared with control” value is reported as 1.5 times.
